Legend:
hAChE = target: T1, hAChE (Homo sapiens, UniProt P22303); experiment: biochemical; conditions: read-out: % inhibition at 10 μM hAChE
T1 construct: purchased Sigma Aldrich
Description: (§1) Readings were made with Infinite M1000 Pro plate reader (Tecan, Cernusco s.N., Italy) and statistical regressions with Prism software (GraphPad Prism version 5.00 for Windows, GraphPad Software, San Diego, CA, USA).

hMAO A = target: T2, hMAO A (Homo sapiens, UniProt P21397); experiment: biochemical
T2 construct: purchased Sigma Aldrich
T2 sequence (P21397 1-527): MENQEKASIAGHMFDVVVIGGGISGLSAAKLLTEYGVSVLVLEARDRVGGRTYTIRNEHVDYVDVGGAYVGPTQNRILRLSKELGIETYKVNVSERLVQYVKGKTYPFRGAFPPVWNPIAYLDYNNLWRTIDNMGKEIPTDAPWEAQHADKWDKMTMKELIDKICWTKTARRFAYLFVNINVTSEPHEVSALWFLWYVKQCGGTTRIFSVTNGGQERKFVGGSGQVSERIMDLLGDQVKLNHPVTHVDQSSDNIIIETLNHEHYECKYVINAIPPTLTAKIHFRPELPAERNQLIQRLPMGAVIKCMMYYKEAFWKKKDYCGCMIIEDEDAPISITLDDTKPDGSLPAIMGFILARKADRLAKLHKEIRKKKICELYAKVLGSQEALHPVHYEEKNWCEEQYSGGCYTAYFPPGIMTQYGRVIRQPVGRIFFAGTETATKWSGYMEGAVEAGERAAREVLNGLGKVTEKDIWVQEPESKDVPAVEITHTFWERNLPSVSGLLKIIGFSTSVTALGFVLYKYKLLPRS
Description: as §1

[1] = RP-HPLC lipophilicity index log k’; assay type: physicochemical; conditions: MeOH/phosphate buffer pH 7.4; methanol/PBS 60:40 v/v
Description: To investigate a possible correlation between MAO inhibitory potency and lipophilicity,[7] we calculated log P with three different programs (ChemDraw 15.0; ALOG PS 2.1; ChemSketch 2017, see Table S1 in Supporting Information) and compared the calculated values with experimental lipophilicity indexes as assessed by reversed‐phase (RP) HPLC in isocratic conditions for the majority of compounds. The log of capacity factors (log k’) measured by RP‐HPLC using a mixture of methanol/PBS (60 : 40, v/v) as the mobile phase are reported in Tables 1 and 2, along with Clog P values calculated with ChemDraw. These calculated lipophilicity descriptors correlated with the experimental log k’ values (n=13, r ^2=0.901) better than the other log Ps calculated by ALOG PS and ChemSketch computational tools (r ^2 equal 0.705 and 0.568, respectively). As shown by the scatter plots in Figure 4 and Figure S1 in Supporting Information, there is no evident correlation trend between MAO A/B inhibition data and lipophilicity calculated by the expert system implemented in ChemDraw for compounds achieving finite IC50 values.
Log k’ values (k’=(tr‐t0)/t0) and purity determinations were carried out using a Phenomenex Gemini C18 4.6×150 mm, with 3 μm size particles, built on a Waters double pump HPLC system in isocratic conditions. Injection volumes were 10 μL, flow rate was 0.5 mL/min, and detection was performed with UV (λ=254 and 370 nm). Samples were prepared by dissolving 0.1 mg/mL of the solute in 10 % v/v DMSO and 90 % v/v methanol. Retention times (tr) were measured at least from three separate injections, and dead time (t0) was the retention time of deuterated methanol. The mobile phase was filtered through a Supelco Nylon‐66 membrane 0.45 μm (Merck Life Science Srl, Milan, Italy) before use. For each reference compound, the average tr of three consecutive injections of 10 μL of sample was used to calculate the log k’ values. The eluent consisted of five different mixtures of methanol and PBS buffer 10 mM at pH 7.4, with methanol/buffer ratios ranging from 80 : 20 to 60 : 40 v/v.

SH-SY5Y cells = experiment: DCF-DA assay of ROS production induced by dopamine in SH-SY5Y cells; assay type: cell-based, human; conditions: 10 nM dopamine + 10 nM compound
Procedure: The immortalized neuroblastoma cells are a widely used model for neuroprotection assays, while dopamine at a concentration of 10 nM acts as an inducer of oxidative stress,[8, 9] being metabolized by MAOs to form hydrogen peroxide. Once hydrolyzed and oxidized, DCF acts as the fluorescing probe of the oxidative stress (OS) state of cells. In the presence of an antioxidant, or even of a MAO inhibitor, ROS burden is lowered and DCF fluorescence decreased. […] Its activity is superimposable to that of phenelzine, a nonselective MAO inhibitor used as a positive control in this test.[10] The same experiment performed on dantrolene in our previous work gave similar results.[1]
Reagents for cell cultures were purchased from Life Technologies (ThermoFisher Scientific, Waltham, MA, USA) unless otherwise stated. […]
ROS production in SH‐SY5Y cell line was detected using Cellular Reactive Oxygen Species Detection Assay Kit ab186027 (Abcam, Cambridge, UK), as previously described.[1] […] After incubation and washing, DCF‐DA was added, the plate was incubated, washed again with PBS, and the fluorescence read every 15 min in a 60 min time interval at 535 nm (excitation at 485 nm) using the Tecan Infinite M1000 Pro plate reader.

[2] = Hydrolytic stability in buffered solution (PBS pH 7.4, 37 °C); assay type: physicochemical; conditions: 20 μM in 10 mM PBS pH 7.4, 37 °C, 6 h incubation
Procedure: The hydrolytic stability of some representative imino/hydrazone/hydrazide derivatives was determined in buffered aqueous media. […]. […]. The hydrolytic degradation of 9 in its starting reagents was confirmed by the comparison of the chromatograms of 9 and 2‐chloro‐4‐hydroxyaniline, obtained in the same chromatographic conditions (Figure 6B).
Stability studies in buffered solution were performed following an already described procedure,[23] on a Phenomenex C18 column (150×4.6 mm i.d., 3 μm particle size; Phenomenex, Castel Maggiore, Italy) using a mobile phase consisting of a mixture of methanol‐water (75 : 25 v/v, with aqueous formic acid 0.1 %). The used flow rate was 0.500 mL/min while the injection volume was 20 μL. Wavelength of UV‐Vis detector was adjusted at 254 nm. The chemical stability was evaluated in a phosphate buffer solution pH 7.4 (10 mM HPO4 ^2−/H2PO4 ^−; 100 mM NaCl) at 37 °C. Five different concentrations from 0.5 μM to 20 μM were studied in a 2 h time range (data not shown). Each concentration (0.5, 1, 5, 10 and 20 μM) was tested in triplicate starting from 3 different stocks solution (1 mM) prepared separately. The time range was extended to 6 h only for the samples at 20 μM concentration (Figure 6a).

hMAO B [3] = target: T3, hMAO B (Homo sapiens, UniProt P27338); experiment: biochemical; assay type: biochemical
T3 construct: purchased Sigma Aldrich
T3 sequence (P27338 1-520): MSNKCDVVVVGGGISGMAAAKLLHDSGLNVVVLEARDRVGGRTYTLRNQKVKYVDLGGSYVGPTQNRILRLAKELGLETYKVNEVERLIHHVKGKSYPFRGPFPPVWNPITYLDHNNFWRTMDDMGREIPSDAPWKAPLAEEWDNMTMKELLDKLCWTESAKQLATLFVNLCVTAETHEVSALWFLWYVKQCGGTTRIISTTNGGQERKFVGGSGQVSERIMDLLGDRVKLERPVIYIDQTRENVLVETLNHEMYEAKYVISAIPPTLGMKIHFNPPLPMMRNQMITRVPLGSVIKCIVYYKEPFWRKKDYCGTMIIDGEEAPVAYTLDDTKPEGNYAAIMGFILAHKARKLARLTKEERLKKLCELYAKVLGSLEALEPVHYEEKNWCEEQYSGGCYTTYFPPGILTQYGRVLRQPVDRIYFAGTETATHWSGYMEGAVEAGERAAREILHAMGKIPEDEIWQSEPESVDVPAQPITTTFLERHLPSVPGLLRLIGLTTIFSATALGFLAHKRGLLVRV

hMAO B [4] = target: T3, hMAO B; design: method as in PMID 31775359; conditions: cited from earlier work

T1 sequence (P22303 32-614): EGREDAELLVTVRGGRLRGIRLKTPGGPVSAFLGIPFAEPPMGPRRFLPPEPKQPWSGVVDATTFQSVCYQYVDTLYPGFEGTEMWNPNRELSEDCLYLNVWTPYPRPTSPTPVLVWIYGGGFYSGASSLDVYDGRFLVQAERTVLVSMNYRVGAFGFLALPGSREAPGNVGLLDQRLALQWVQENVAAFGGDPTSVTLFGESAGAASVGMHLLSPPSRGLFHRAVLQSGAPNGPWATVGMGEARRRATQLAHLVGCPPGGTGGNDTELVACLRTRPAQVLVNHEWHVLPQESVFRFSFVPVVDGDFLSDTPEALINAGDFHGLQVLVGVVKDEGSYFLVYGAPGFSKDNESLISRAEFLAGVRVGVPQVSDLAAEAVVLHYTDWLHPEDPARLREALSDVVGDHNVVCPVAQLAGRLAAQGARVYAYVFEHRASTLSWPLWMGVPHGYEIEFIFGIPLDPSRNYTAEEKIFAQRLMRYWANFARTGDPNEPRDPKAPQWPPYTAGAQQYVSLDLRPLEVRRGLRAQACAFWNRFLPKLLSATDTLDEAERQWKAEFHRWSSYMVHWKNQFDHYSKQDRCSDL

Row | SMILES | inhibition at 10 µM (hAChE) | IC50 (hMAO A) | log k’ (logarithm of capacity factor, RP-HPLC) [1] | reduction of ROS oxidation of DCF (SH-SY5Y cells) | degradation percentage [2] | IC50 (hMAO B [3]) | mechanism of hMAO B inhibition (hMAO B [3]; Michaelis-Menten / Lineweaver-Burk) | selectivity for MAO B over MAO A (hMAO B [3]; from IC50 values) | Ki (hMAO B [3]; inhibition kinetics without preincubation, kynuramine substrate) | Ki human MAO B (hMAO B [4])
1 | N#Cc1ccc(-c2ccc(/C=N/c3ccc(O)cc3Cl)o2)cc1 [Compound 9] | 30% | 3460 ± 250 nM | 0.782 | effective in reducing ROS oxidation of DCF | 76% | 680 ± 50 nM | competitive | 5 fold | 500 ± 60 nM | 
2 | O=C1CN(/N=C/c2ccc(-c3ccc([N+](=O)[O-])cc3)o2)C(O)=N1 [DAN, Dantrolene] |  |  | 0.115 |  |  |  |  |  |  | low micromolar range

Reference: article PMC8518391, “Synthesis and Biological Evaluation of Dantrolene‐Like Hydrazide and Hydrazone Analogues as Multitarget Agents for Neurodegenerative Diseases” (Chemmedchem, 2021)
